Results from PubChem BioAssay AID248 (DTP/NCI, 2004).
Inconclusive results and toxic doses are left out. Rule as the data show it: active = T/C of 150% or more; inactive = T/C below 125%.

System: L1210 leukemia ip in BDF1 mice, survival T/C
Experiment: NCI In Vivo Anticancer Drug Screen. Data for tumor model L1210 Leukemia (intraperitoneal) in B6D2F1 (BDF1) mice
Settings: endpoint: mean survival time, higher = longer survival
Method in brief: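 In this screen, tumor-bearing mice given compound are compared to those given vehicle, and their survival values are reported as a treated-to-control quotient.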

[1] = dose: 100.0 mg/kg/injection, schedule: Q01DX009 (ip), vehicle: Klucel (hydroxypropylcellulose) (HPC)
[2] = dose: 100.0 mg/kg/injection, schedule: Q04DX003 (ip), vehicle: Klucel (hydroxypropylcellulose) (HPC)
[3] = dose: 200.0 mg/kg/injection, schedule: Q01DX009 (ip), vehicle: Klucel (hydroxypropylcellulose) (HPC)
[4] = dose: 200.0 mg/kg/injection, schedule: Q04DX003 (ip), vehicle: Klucel (hydroxypropylcellulose) (HPC)
[5] = dose: 400.0 mg/kg/injection, schedule: Q01DX009 (ip), vehicle: Klucel (hydroxypropylcellulose) (HPC)
[6] = dose: 400.0 mg/kg/injection, schedule: Q04DX003 (ip), vehicle: Klucel (hydroxypropylcellulose) (HPC)
[7] = dose: 100.0 mg/kg/injection, schedule: Q04DX003 (ip), vehicle: saline
[8] = dose: 200.0 mg/kg/injection, schedule: Q04DX003 (ip), vehicle: saline
[9] = dose: 400.0 mg/kg/injection, schedule: Q04DX003 (ip), vehicle: saline
[10] = dose: 100.0 mg/kg/injection, schedule: Q01DX001 (ip), vehicle: Klucel (hydroxypropylcellulose) (HPC)
[11] = dose: 200.0 mg/kg/injection, schedule: Q01DX001 (ip), vehicle: Klucel (hydroxypropylcellulose) (HPC)
[12] = dose: 400.0 mg/kg/injection, schedule: Q01DX001 (ip), vehicle: Klucel (hydroxypropylcellulose) (HPC)
[13] = dose: 100.0 mg/kg/injection, schedule: Q04DX003 (ip), vehicle: saline with Tween-80
[14] = dose: 200.0 mg/kg/injection, schedule: Q04DX003 (ip), vehicle: saline with Tween-80
[15] = dose: 400.0 mg/kg/injection, schedule: Q04DX003 (ip), vehicle: saline with Tween-80

Measured: T/C

COc1ccccc1C(=O)C(O)c1ccccc1OC (stereo not given)
inactive: dose: 50.0 mg/kg/injection, schedule: Q01DX009 (ip), vehicle: Klucel (hydroxypropylcellulose) (HPC) 105 % of control | [1] 101 % of control | [2] 94 % of control | [3] 96 % of control | [4] 96 % of control | [5] 101 % of control | [6] 93 % of control

BrC12CCC(CC1)C1(Br)CCC2CC1
inactive: dose: 100.0 mg/kg/injection, schedule: Q01DX001 (ip), vehicle: saline 102 % of control | [7] 86 % of control | dose: 200.0 mg/kg/injection, schedule: Q01DX001 (ip), vehicle: saline 96 % of control | [8] 91 % of control | dose: 400.0 mg/kg/injection, schedule: Q01DX001 (ip), vehicle: saline 89 % of control | [9] 86 % of control

CCOC(=O)NC(CI)(c1ccccc1)c1ccccc1
inactive: dose: 75.0 mg/kg/injection, schedule: Q01DX001 (ip), vehicle: saline 98 % of control | dose: 150.0 mg/kg/injection, schedule: Q01DX001 (ip), vehicle: saline 97 % of control | dose: 300.0 mg/kg/injection, schedule: Q01DX001 (ip), vehicle: saline 92 % of control

COc1ccc(OC)c(NC(=O)Nc2ccc(Nc3ccccc3)cc2)c1
inactive: [4] 93 % of control | [6] 100 % of control

Oc1ccccc1C=NCCCN1CC1.[Ni+2].[O-]c1ccccc1C=NCCCN1CC1
inactive: [10] 114 % of control | [11] 87 % of control | [12] 104 % of control

C1COCCN1
inactive: dose: 25.6 mg/kg/injection, schedule: Q04DX002 (ip), vehicle: saline with Tween-80 101 % of control | dose: 64.0 mg/kg/injection, schedule: Q04DX002 (ip), vehicle: saline with Tween-80 101 % of control | [13] 98 % of control | dose: 160.0 mg/kg/injection, schedule: Q04DX002 (ip), vehicle: saline with Tween-80 101 % of control | [14] 101 % of control | dose: 400.0 mg/kg/injection, schedule: Q04DX002 (ip), vehicle: saline with Tween-80 101 % of control | [15] 95 % of control

CCCCCCOC(=O)Nc1cccc2ccccc12
inactive: dose: 75.0 mg/kg/injection, schedule: Q01DX009 (ip), vehicle: saline 94 % of control | dose: 150.0 mg/kg/injection, schedule: Q01DX009 (ip), vehicle: saline 99 % of control | dose: 300.0 mg/kg/injection, schedule: Q01DX009 (ip), vehicle: saline 96 % of control

CC(C(=O)O)C(NC(=O)c1ccccc1)C(=O)O (stereo not given)
inactive: [10] 93 % of control | [11] 100 % of control | [12] 92 % of control

Cl/C(=C\c1ccccc1)c1ccccc1
inactive: dose: 25.0 mg/kg/injection, schedule: Q04DX003 (ip), vehicle: Klucel (hydroxypropylcellulose) (HPC) 96 % of control | dose: 50.0 mg/kg/injection, schedule: Q04DX003 (ip), vehicle: Klucel (hydroxypropylcellulose) (HPC) 95 % of control | [2] 96 % of control | [6] 101 % of control

CCC(=O)n1ncc2ccc([N+](=O)[O-])cc21
inactive: [13] 103 % of control | [14] 88 % of control | [15] 93 % of control

COc1ccc(Cl)cc1NC(=O)N1CCN(c2ccccc2)CC1
inactive: [1] 120 % of control | [7] 101 % of control | [3] 97 % of control | [8] 101 % of control | [5] 111 % of control | [9] 97 % of control

COc1cccc(/C=N/NC(=O)C[n+]2ccccc2)c1OC
inactive: dose: 25.0 mg/kg/injection, schedule: Q01DX009 (ip), vehicle: saline with Tween-80 98 % of control | dose: 50.0 mg/kg/injection, schedule: Q01DX009 (ip), vehicle: saline with Tween-80 106 % of control | [13] 113 % of control
